Assays:
human RIPK3 = human RIPK3 (Homo sapiens (Human), UniProt Q9Y572); assay: KINOMEscan binding assay, human RIPK3; settings: Table 21
Protocol: (§1) Binding affinity of the test compounds for human MLKL (full length), mouse MLKL (full length), human RIPK1 and human RIPK3 was determined using the KINOMEscan™ technology developed by DiscoverX (USA; http://www.discoverx.com). The assay was conducted according to manufacturer instructions.
(§2) Kinase assays. For most assays, kinase-tagged T7 phage strains were grown in parallel in 24-well blocks in an E. coli host derived from the BL21 strain. E. coli were grown to log-phase and infected with T7 phage from a frozen stock (multiplicity of infection=0.4) and incubated with shaking at 32° C. until lysis (90-150 minutes). The lysates were centrifuged (6,000×g) and filtered (0.2 μm) to remove cell debris. The remaining kinases were produced in HEK-293 cells and subsequently tagged with DNA for qPCR detection. […] The liganded beads were blocked with excess biotin and washed with blocking buffer (SeaBlock (Pierce), 1% BSA, 0.05% Tween 20, 1 mM DTT) to remove unbound ligand and to reduce non-specific phage binding. […] All reactions were performed in polypropylene 384-well plates in a final volume of 20 μL. […] The kinase concentration in the eluates was measured by qPCR.
(§3) An 11-point 3-fold serial dilution of each test compound was prepared in 100% DMSO at 100× final test concentration and subsequently diluted to 1× in the assay (final DMSO concentration=1%). Most Kos were determined using a compound top concentration=30,000 nM.
(§4) KD for each test compound was calculated with a standard dose-response curve using the Hill equation (equation (1)): […]
(§5) The Hill Slope was set to −1.
(§6) Curves were fitted using a non-linear least square fit with the Levenberg-Marquardt algorithm.

human RIPK1 = human RIPK1 (Homo sapiens (Human), UniProt Q13546); assay: KINOMEscan binding assay, human RIPK1; settings: Table 21
Chain of human RIPK1 (Q13546 whole entry): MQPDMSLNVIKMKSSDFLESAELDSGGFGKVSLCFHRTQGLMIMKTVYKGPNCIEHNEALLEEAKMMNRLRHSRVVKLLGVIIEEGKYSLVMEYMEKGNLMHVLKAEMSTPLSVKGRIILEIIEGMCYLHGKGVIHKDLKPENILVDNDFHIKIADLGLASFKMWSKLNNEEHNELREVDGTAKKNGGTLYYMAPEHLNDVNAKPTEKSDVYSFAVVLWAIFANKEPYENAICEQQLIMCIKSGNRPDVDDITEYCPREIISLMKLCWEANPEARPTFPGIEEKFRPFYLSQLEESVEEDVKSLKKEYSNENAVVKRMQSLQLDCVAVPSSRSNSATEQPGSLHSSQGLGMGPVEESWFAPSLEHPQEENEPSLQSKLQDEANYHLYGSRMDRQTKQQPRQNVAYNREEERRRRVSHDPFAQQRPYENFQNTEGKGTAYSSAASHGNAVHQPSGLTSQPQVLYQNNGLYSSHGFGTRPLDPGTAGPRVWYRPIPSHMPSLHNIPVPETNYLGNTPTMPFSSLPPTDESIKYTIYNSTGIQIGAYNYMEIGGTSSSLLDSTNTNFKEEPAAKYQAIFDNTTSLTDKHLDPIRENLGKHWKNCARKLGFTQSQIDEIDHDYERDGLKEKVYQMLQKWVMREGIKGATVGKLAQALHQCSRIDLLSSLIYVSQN
Protocol: as §1, §2, §3, §4, §5, §6

Chain of human RIPK3 (Q9Y572 whole entry): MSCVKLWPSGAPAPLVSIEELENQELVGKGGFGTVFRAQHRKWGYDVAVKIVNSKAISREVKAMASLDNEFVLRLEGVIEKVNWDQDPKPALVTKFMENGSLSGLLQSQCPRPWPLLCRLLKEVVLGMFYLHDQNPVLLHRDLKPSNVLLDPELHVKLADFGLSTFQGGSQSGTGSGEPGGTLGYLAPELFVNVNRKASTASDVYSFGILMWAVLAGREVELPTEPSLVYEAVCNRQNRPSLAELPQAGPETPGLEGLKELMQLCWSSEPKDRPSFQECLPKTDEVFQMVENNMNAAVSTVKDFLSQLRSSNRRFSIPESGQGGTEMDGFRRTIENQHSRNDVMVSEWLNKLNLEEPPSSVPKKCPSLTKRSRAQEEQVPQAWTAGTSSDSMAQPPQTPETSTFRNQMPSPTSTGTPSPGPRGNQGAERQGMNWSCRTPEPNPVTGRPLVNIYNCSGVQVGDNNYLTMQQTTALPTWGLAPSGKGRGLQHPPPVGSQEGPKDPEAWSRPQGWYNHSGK

Kd (human RIPK3) [µM] | Kd (human RIPK1) [µM] | Compound
> 10 | > 10 | C[C@H](Oc1cc(-c2nn(C)c3c(-c4cccc(Cl)c4)cnc(N)c23)ccc1NS(=O)(=O)C(F)F)c1ccc(F)cc1 [Compound 84, (S)-N-(4-(4-amino-7-(3-chlorophenyl)-1-methyl-1H-pyrazolo[4,3-c]pyridin-3-yl)-2-(1-(4-fluorophenyl)ethoxy)phenyl)-1,1-difluoromethanesulfonamide]
> 10 | > 10 | C[C@H](Oc1cc(-c2nn(C)c3c(-c4ccccc4Cl)cnc(N)c23)ccc1NS(=O)(=O)C(F)F)c1ccc(F)cc1 [Compound 85, (S)-N-(4-(4-amino-7-(2-chlorophenyl)-1-methyl-1H-pyrazolo[4,3-c]pyridin-3-yl)-2-(1-(4-fluorophenyl)ethoxy)phenyl)-1,1-difluoromethanesulfonamide]
> 10 | > 10 | C[C@H](Oc1cc(-c2nn(C)c3c(-c4ccccc4)cnc(N)c23)ccc1NS(=O)(=O)C(F)F)c1ccc(F)cc1 [Compound 86, (S)-N-(4-(4-amino-1-methyl-7-phenyl-1H-pyrazolo[4,3-c]pyridin-3-yl)-2-(1-(4-fluorophenyl)ethoxy)phenyl)-1,1-difluoromethanesulfonamide]
> 10 | > 10 | C[C@H](Oc1cc(-c2nn(C)c3c(-c4ccc(Cl)cc4)cnc(N)c23)ccc1NS(=O)(=O)C(F)F)c1ccc(F)cc1 [Compound 87, (S)-N-(4-(4-amino-7-(4-chlorophenyl)-1-methyl-1H-pyrazolo[4,3-c]pyridin-3-yl)-2-(1-(4-fluorophenyl)ethoxy)phenyl)-1,1-difluoromethanesulfonamide]
> 10 | > 10 | C[C@H](Oc1cc(-c2nn(C)c3c(-c4cnn5c4CNCC5)cnc(N)c23)ccc1NS(=O)(=O)C(F)F)c1ccc(F)cc1 [Compound 90, (S)—N-(4-(4-amino-1-methyl-7-(4,5,6,7-tetrahydropyrazolo[1,5-a]pyrazin-3-yl)-1H-pyrazolo[4,3-c]pyridin-3-yl)-2-(1-(4-fluorophenyl)ethoxy)phenyl)-1,1-difluoromethanesulfonamide]
> 10 | > 10 | CC1CNCC(n2cc(-c3cnc(N)c4c(-c5ccc(NS(=O)(=O)C(F)F)c(O[C@@H](C)c6ccc(F)cc6)c5)nn(C)c34)cn2)C1 (stereo partly drawn) [Compound 95, N-(4-(4-amino-1-methyl-7-(1-(5-methylpiperidin-3-yl)-1H-pyrazol-4-yl)-1H-pyrazolo[4,3-c]pyridin-3-yl)-2-((S)-1-(4-fluorophenyl)ethoxy)phenyl)-1,1-difluoromethane-sulfonamide]
> 10 | > 10 | C[C@H](Oc1cc(-c2nn(C)c3c(-c4ccc(N5CCN(C)CC5)nc4)cnc(N)c23)ccc1NS(=O)(=O)C(F)F)c1ccc(F)cc1 [Compound 107, (S)-N-(4-(4-amino-1-methyl-7-(6-(4-methylpiperazin-1-yl)pyridin-3-yl)-1H-pyrazolo[4,3-c]pyridin-3-yl)-2-(1-(4-fluorophenyl)ethoxy)phenyl)-1,1-difluoromethanesulfonamide]
> 10 | > 10 | C[C@H](Oc1cc(-c2nn(C)c3c(-c4cnc(N5CCCC5)nc4)cnc(N)c23)ccc1NS(=O)(=O)C(F)F)c1ccc(F)cc1 [Compound 114, (S)-N-(4-(4-amino-1-methyl-7-(2-(pyrrolidin-1-yl)pyrimidin-5-yl)-1H-pyrazolo[4,3-c]pyridin-3-yl)-2-(1-(4-fluorophenyl)ethoxy)phenyl)-1,1-difluoromethanesulfonamide]
> 10 | > 10 | C[C@H](Oc1cc(-c2nn(C)c3c(-c4ccc(N5CCOCC5)nc4)cnc(N)c23)ccc1NS(=O)(=O)C(F)F)c1ccc(F)cc1 [Compound 115, (S)-N-(4-(4-amino-1-methyl-7-(6-morpholinopyridin-3-yl)-1H-pyrazolo[4,3-c]pyridin-3-yl)-2-(1-(4-fluorophenyl)ethoxy)phenyl)-1,1-difluoromethanesulfonamide]
> 10 | > 10 | C[C@H](Oc1cc(-c2nn(C)c3c(-c4ccc(C(F)(F)F)nc4)cnc(N)c23)ccc1NS(=O)(=O)C(F)F)c1ccc(F)cc1 [Compound 117, (S)-N-(4-(4-amino-1-methyl-7-(6-(trifluoromethyl)pyridin-3-yl)-1H-pyrazolo[4,3-c]pyridin-3-yl)-2-(1-(4-fluorophenyl)ethoxy)phenyl)-1,1-difluoromethanesulfonamide]

More lines, now with the values behind:

Compound | Kd (human RIPK3) [µM] | Kd (human RIPK1) [µM]
C[C@H](Oc1cc(-c2nn(C)c3c(-c4cnn(CC5CCCN5)c4)cnc(N)c23)ccc1NS(=O)(=O)C(F)F)c1ccc(F)cc1 (stereo partly drawn) [Compound 88, N-(4-(4-amino-1-methyl-7-(1-(pyrrolidin-2-ylmethyl)-1H-pyrazol-4-yl)-1H-pyrazolo[4,3-c]pyridin-3-yl)-2-((S)-1-(4-fluorophenyl)ethoxy)phenyl)-1,1-difluoromethane-sulfonamide] | > 10 | > 10
C[C@H](Oc1cc(-c2nn(C)c3c(-c4cnn5c4CN(C)CC5)cnc(N)c23)ccc1NS(=O)(=O)C(F)F)c1ccc(F)cc1 [Compound 91, (S)—N-(4-(4-amino-1-methyl-7-(5-methyl-4,5,6,7-tetrahydropyrazolo[1,5-a]pyrazin-3-yl)-1H-pyrazolo[4,3-c]pyridin-3-yl)-2-(1-(4-fluorophenyl)ethoxy)phenyl)-1,1-difluoromethanesulfonamide] | > 10 | > 10
C[C@H](Oc1cc(-c2nn(C)c3c(-c4cnn(C5CC6(C5)CN(C)C6)c4)cnc(N)c23)ccc1NS(=O)(=O)C(F)F)c1ccc(F)cc1 [Compound 99, (S)-N-(4-(4-amino-1-methyl-7-(1-(2-methyl-2-azaspiro[3.3]heptan-6-yl)-1H-pyrazol-4-yl)-1H-pyrazolo[4,3-c]pyridin-3-yl)-2-(1-(4-fluorophenyl)eth-oxy)phenyl)-1,1-difluoromethane-sulfonamide] | > 10 | > 10
C[C@H](Oc1cc(-c2nn(C)c3c(-c4cnc(N(C)C)nc4)cnc(N)c23)ccc1NS(=O)(=O)C(F)F)c1ccc(F)cc1 [Compound 106, (S)-N-(4-(4-amino-7-(2-(dimethylamino)pyrimidin-5-yl)-1-methyl-1H-pyrazolo[4,3-c]pyridin-3-yl)-2-(1-(4-fluorophenyl)ethoxy)phenyl)-1,1-difluoromethanesulfonamide] | > 10 | > 10
COC[C@H](Oc1cc(-c2nn(C)c3c(-c4cnn(C5CCOCC5)c4)cnc(N)c23)ccc1NS(=O)(=O)C(F)F)c1ccc(F)cc1 [Compound 111, (R)—N-(4-(4-amino-1-methyl-7-(1-(tetrahydro-2H-pyran-4-yl)-1H-pyrazol-4-yl)-1H-pyrazolo[4,3-c]pyridin-3-yl)-2-(1-(4-fluorophenyl)-2-methoxyethoxy)phenyl)-1,1-difluoromethanesulfonamide] | > 10 | > 10
COC[C@@H](Oc1cc(-c2nn(C)c3c(-c4cnn(C5CCOCC5)c4)cnc(N)c23)ccc1NS(=O)(=O)C(F)F)c1ccc(F)cc1 [Compound 112, (S)—N-(4-(4-amino-1-methyl-7-(1-(tetrahydro-2H-pyran-4-yl)-1H-pyrazol-4-yl)-1H-pyrazolo[4,3-c]pyridin-3-yl)-2-(1-(4-fluorophenyl)-2-methoxyethoxy)phenyl)-1,1-difluoromethanesulfonamide] | > 10 | > 10
C[C@H](Oc1cc(-c2nn(C)c3c(-c4cnn(CC(F)(F)F)c4)cnc(N)c23)ccc1NS(=O)(=O)C(F)F)c1ccc(F)cc1 [Compound 116, (S)-N-(4-(4-amino-1-methyl-7-(1-(2,2,2-trifluoroethyl)-1H-pyrazol-4-yl)-1H-pyrazolo[4,3-c]pyridin-3-yl)-2-(1-(4-fluorophenyl)ethoxy)phenyl)-1,1-difluoromethanesulfonamide] | > 10 | > 10
C[C@H](Oc1cc(-c2nn(C)c3c(-c4cnn(C5CCOCC5)c4)cnc(N)c23)ccc1NS(=O)(=O)C(F)F)c1ccccc1F [Compound 118, (S)-N-(4-(4-amino-1-methyl-7-(1-(tetrahydro-2H-pyran-4-yl)-1H-pyrazol-4-yl)-1H-pyrazolo[4,3-c]pyridin-3-yl)-2-(1-(2-fluoro-phenyl)ethoxy)phenyl)-1,1-difluoromethane-sulfonamide] | > 10 | > 10
C[C@H](Oc1cc(-c2nn(C)c3c(-c4cnn(C5CCOCC5)c4)cnc(N)c23)ccc1NS(C)(=O)=O)c1ccc(F)cc1 [Compound 119, (S)-N-(4-(4-amino-1-methyl-7-(1-(tetrahydro-2H-pyran-4-yl)-1H-pyrazol-4-yl)-1H-pyrazolo[4,3-c]pyridin-3-yl)-2-(1-(4-fluorophenyl)ethoxy)phe-nyl)methanesulfonamide] | > 10 | > 10
C[C@H](Oc1cc(-c2nn(C)c3c(-c4cnn(C5CCC(F)(F)C5)c4)cnc(N)c23)ccc1NS(=O)(=O)C(F)F)c1ccc(F)cc1 (stereo partly drawn) [Compound 120, N-(4-{4-amino-7-[1-(3,3-difluorocyclopentyl)-1H-pyrazol-4-yl]-1-methyl-1H-pyrazolo[4,3-c]pyridin-3-yl}-2-[(1S)-1-(4-fluorophenyl)ethoxy]phenyl)-1,1-difluoromethanesulfonamide] | > 10 | > 10
